Reference: patent publication US12441811B2, “Compositions and methods for treating serpin B13 disorders” (REGENTS OF THE UNIVERSITY OF MINNESOTA, priority 2019, dated 2025)

Experiments:
[1] = system: Ngn3+ endocrine progenitor cells; assay: Ngn3+ cells in embryonic pancreas explants (E12.5) cultured in vitro; type: cell-based, mouse; conditions: for number of Ngn3+ endocrine progenitor cells: E12.5 explants, recombinant protein 10 μg/mL, 72 hours vs buffer
Description: Isolation and culture of embryonic pancreas explants. The isolation and culture of embryonic pancreas explants was performed as described elsewhere, with minor modifications.
Processing of pancreatic tissue for immunofluorescence microscopy. The pancreatic tissues were isolated and fixed either overnight (adult pancreases), or for one hour (embryonic pancreas explants), in 2% PFA (pH 7.4), followed by a two-step saturation process: first in a 30% sucrose solution in PBS and then in optimal cutting temperature (OCT) compound. After complete saturation, the tissues were imbedded in OCT using Cryomold and then snap frozen in an ethanol/dry ice bath. The OCT blocks were serially cut through the entire organ to obtain representative sections every 600 μm (6 to 8 sections per adult pancreas), 50 μm (12 to 14 sections per E16.5 embryonic pancreas), 35 μm (10 to 12 sections per E14.5 embryonic pancreas), or 15 μm (10 to 12 sections per E12.5 embryonic pancreas cultured for 1 to 3 days). For the embryonic linage tracing experiments, three largest sections were taken for the analysis. For all other experiments involving immunofluorescence microscopy, all obtained sections were analyzed. […]
The sections from the pancreases of embryos at age E14.5 and E16.5, and newborn pups (OP), were stained with anti-Ngn3 antibody to determine the total number of endocrine progenitors cells for all sections per explant combined (FIG. 9G, FIG. 17A). Alternatively, the sections representing the pancreases of embryos at age E12.5 (which are considerably smaller) were stained with both anti-Ngn3 and anti-CK19 antibodies to determine the fraction of CK19-positive area that was occupied by Ngn3− positive staining (FIGS. 9D, 10A, 10C, 12D, 12G, 12J and FIGS. 15A, 20B). The following formula was used to adjust for any differences in the pancreas size: (Ngn3^+ cell number/μm^2 of CK19^+ cells)×10^5.
Image analysis. Embryonic images were processed with a plugin-Trainable Weka Segmentation v3.2.28 (Hamilton, New Zealand) for ImageJ v.1.52jv software. To classify and quantify the images in unbiased fashion, we defined the following four classes for the analysis: Ngn3^+ cells, the clusters of cytokeratin 19^+ cells, the negatively stained areas, and background (e.g., the area outside of tissue sample). Alternatively, the Visiopharm version 6.0 software (Visiopharm, Hoerholm, Denmark) with Author module was used to create applications to outline Ngn3^+ cells or double positive cells expressing YFP and insulin using preprocessing and postprocessing steps, when necessary. In addition, the Engine module of the Visiophram module was used to execute created applications and unbiasedly analyze the images. For the unbiased quantitative analysis of β-cells and islets in the whole pancreatic sections, Visiopharm Author module was trained to recognize insulin-positive β-cell clusters with diameter greater than 50 μm as well as negatively stained section area. In all studies involving microscopy the treatment assignments were blinded to investigators who performed data analysis.

Notch1 receptor = assay: Examination of Notch1 receptor in embryonic pancreas (Western blot, flow cytometry, qPCR); type: cell-based, mouse
Description: Staining for flow cytometry. BD LSRFortessa X-20, LSR-II and FACSCanto-II were used for FACS analysis. Positive populations of cells were gated and counted using FlowJo ver.10 software. For the islet cells isolated from adult mice, intracellular staining to detect glucagon and insulin was used to count single-positive as well as double-negative cells. In the cells isolated from embryonic pancreas explants, intracellular staining was performed to detect Ngn3, CK19, and active Notch, and extracellular staining was used to detect the extracellular Notch domain, EpCAM, CD31 and CD45.
Western blotting. Pancreatic tissues were processed from E16.5 embryos as single samples and directly used for lysis. Embryonic pancreas explants from E12.5 embryos were cultured in vitro with anti-serpinB13 mAb (or control Ab) for 24 or 48 hours, then, three explant cultures were combined and lysed. The samples were washed two times in ice-cold PBS and lysed with gentle pipetting for 10 minutes with additional tap-vortexing for 15 minutes in RIPA buffer containing Halt protease inhibitors (cat. no. 1862209, Thermo Fisher Scientific). Equal amounts of protein in each sample were run under reducing conditions on Bis-Tris BOLT gradient gel (4-12%) or NUPAGE Tris-acetate gradient gels (4-12%) (both from Thermo Fisher Scientific), and transferred onto […] nitrocellulose or activated PVDF membranes. The membranes were blocked with 5% skim milk and stained with primary and secondary antibodies, as indicated. The Western blots were developed with SuperSignal West Pico Chemiluminescent Substrate or West Femto Maximum Sensitivity Substrate (cat. nos. […] and […], respectively; both from Thermo Scientific), and scanned using the ChemiDoc™ MP Imaging System (Bio-Rad, Hercules, […], USA).
Quantitative real-time PCR. Total RNA from embryonic pancreases was extracted using the RNeasy UCP Micro kit (cat. no. 73934; Qiagen, Hilden, Germany) to measure expression of the Notch1 gene. One hundred to […] of the total RNA per group was reverse transcribed to cDNA using the iScript cDNA Synthesis Kit (cat. no. 1708891; Bio-Rad). Quantitative PCR assays were performed on an Applied Biosystems QuantStudio 3 real-time PCR system using cDNA and the Kapa Sybr Fast reagent (cat. no. 0795959100; Roche). Actin-R was used as a reference gene. The primer sequence for Notch1 was as follows: forward—5′[…]3′ and reverse—5′ […]3′.

Q: Which “number of Ngn3+ endocrine progenitor cells” value (from here on “number”) [1] does the source give for “chicken ovalbumin: non-inhibitory structural homolog and founding member of the clade B serpin family, used as control [reference compound]” here?
A: not

Q: For “recombinant CatL: recombinant mouse cathepsin L”, which “cleavage of the extracellular domain of Notch1” value (Notch1 receptor; recombinant CatL 2.5 μg/mL for last 4 hours of 48-hour incubation) is on record?
A: cleaved

Q: What about the Ngn3 cells ([1]; recombinant mouse cathepsin L 2.5 μg/mL for 4 hours vs buffer) of the same molecule?
A: induced additional

Q: For `CC(C)C[C@H](NC(=O)[C@H]1O[C@@H]1C(=O)O)C(=O)NCCCCN=C(N)N` [Clone E64, reference compound], which “mAb-induced Notch1 degradation fragments in presence of protease inhibitor” value (Notch1 receptor; E64 1 μM with antibody for 48 hours) is on record?
A: almost completely prevented

Q: What about the “size of the Ngn3+ cell population” value ([1]; E12.5 WT explants, E64 10 μM, 48 hours vs DMSO) of the same molecule?
A: significantly reduced

B1: mouse recombinant serpinB13: recombinant serpinB13 of mouse (protein)
chain: MDSLGTAATQFLFDLFKELNKTNDGNVFFSPVGISTAIGMIILGTRGATASELQKVLYTEQGTESSRIKSEEEEIEKREEIHHQLQMLLTEISKFSNDYDLIISNRLFGEKTYLFLQKYIDYVEKYYHASLEPVDFVNAADESRKKINSWVESQTNVKVKDLFPEGSLNSSTKLVLINTVYFKGLWDREFKKEHTKEEDFWLNKNLSKPVQMMALCSSFNFTFLEDLQAKIVGIPYKNNDISMFVLLPNDIDGLEKIMDKMSPEKLVEWTSPGHLEQRRVDLRLPRLQVEETYDLEPVLEAVGIHSAFSEHADYSGMSARSGLHAQNFLHRSFLVVTEEGVEATAGTGVGLKVSSAASCELVHCNHPFLFFIRHRESDSILFFGKFSSP
Q: For B1, which “number” value [1] is on record?
A: significant drop

B2: recombinant serpinB13 protein: recombinant serpinB13 (mouse and human not distinguished at this place) (protein)
chain: MDSLGAVSTRLGFDLFKELKKTNDGNIFFSPVGILTAIGMVLLGTRGATASQLEEVFHSEKETKSSRIKAEEKEVIENTEAVHQQFQKFLTEISKLTNDYELNITNRLFGEKTYLFLQKYLDYVEKYYHASLEPVDFVNAADESRKKINSWVESKTNEKIKDLFPDGSISSSTKLVLVNMVYFKGQWDREFKKENTKEEKFWMNKSTSKSVQMMTQSHSFSFTFLEDLQAKILGIPYKNNDLSMFVLLPNDIDGLEKIIDKISPEKLVEWTSPGHMEERKVNLHLPRFEVEDGYDLEAVLAAMGMGDAFSEHKADYSGMSSGSGLYAQKFLHSSFVAVTEEGTEAAAATGIGFTVTSAPGHENVHCNHPFLFFIRHNESNSILFFGRFSSP
Q: Which “number” value [1] does the source give for B2 here?
A: downregulate

B3: human recombinant serpinB13: recombinant human serpinB13 expressed in baculovirus (protein)
chain: MDSLGAVSTRLGFDLFKELKKTNDGNIFFSPVGILTAIGMVLLGTRGATASQLEEVFHSEKETKSSRIKAEEKEVIENTEAVHQQFQKFLTEISKLTNDYELNITNRLFGEKTYLFLQKYLDYVEKYYHASLEPVDFVNAADESRKKINSWVESKTNEKIKDLFPDGSISSSTKLVLVNMVYFKGQWDREFKKENTKEEKFWMNKSTSKSVQMMTQSHSFSFTFLEDLQAKILGIPYKNNDLSMFVLLPNDIDGLEKIIDKISPEKLVEWTSPGHMEERKVNLHLPRFEVEDGYDLEAVLAAMGMGDAFSEHKADYSGMSSGSGLYAQKFLHSSFVAVTEEGTEAAAATGIGFTVTSAPGHENVHCNHPFLFFIRHNESNSILFFGRFSSP
Q: With B3 as the molecule, how does the “number” value [1] read?
A: significant drop
